Experimental data taken from ChEMBL document CHEMBL3991601, “The target landscape of clinical kinase drugs” (Science, 2017).
The source made the active and inactive calls.

Key:
Activated CDC42 kinase 1 = Activated CDC42 kinase 1 (Homo sapiens, UniProt Q07912)
[1] = biological target: Cyclin-dependent kinase 13 (Homo sapiens, UniProt Q14004)
GTP-binding protein 4 = GTP-binding protein 4 (Homo sapiens, UniProt Q9BZE4)
[2] = biological target: T1, Discoidin domain-containing receptor 2 (Homo sapiens, UniProt Q16832)
T1 sequence (Q16832 whole entry): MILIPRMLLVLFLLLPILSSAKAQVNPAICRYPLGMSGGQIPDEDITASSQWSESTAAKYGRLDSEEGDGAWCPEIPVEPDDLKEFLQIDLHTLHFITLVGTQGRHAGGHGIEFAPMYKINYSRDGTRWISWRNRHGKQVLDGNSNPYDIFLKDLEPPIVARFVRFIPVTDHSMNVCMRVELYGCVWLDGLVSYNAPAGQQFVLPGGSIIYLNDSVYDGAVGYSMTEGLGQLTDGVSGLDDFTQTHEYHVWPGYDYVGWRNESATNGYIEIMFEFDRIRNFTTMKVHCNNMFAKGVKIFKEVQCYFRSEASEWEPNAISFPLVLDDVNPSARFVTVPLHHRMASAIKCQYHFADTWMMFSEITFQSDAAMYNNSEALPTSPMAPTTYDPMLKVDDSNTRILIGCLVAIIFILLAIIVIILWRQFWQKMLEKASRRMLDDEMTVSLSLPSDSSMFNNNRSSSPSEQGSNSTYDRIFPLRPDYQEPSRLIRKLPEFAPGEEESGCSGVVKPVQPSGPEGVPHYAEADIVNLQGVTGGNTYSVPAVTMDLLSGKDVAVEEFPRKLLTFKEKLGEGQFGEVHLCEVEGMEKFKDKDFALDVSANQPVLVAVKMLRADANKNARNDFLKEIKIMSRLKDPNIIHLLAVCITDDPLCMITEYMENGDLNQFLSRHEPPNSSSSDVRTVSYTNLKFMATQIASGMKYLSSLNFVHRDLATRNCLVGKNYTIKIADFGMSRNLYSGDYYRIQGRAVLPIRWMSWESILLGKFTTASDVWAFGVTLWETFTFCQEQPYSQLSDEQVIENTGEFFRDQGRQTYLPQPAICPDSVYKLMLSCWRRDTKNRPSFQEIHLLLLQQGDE

Midasin = Midasin (Homo sapiens, UniProt Q9NU22)
TGF-beta receptor type-1 = biological target: T2, TGF-beta receptor type-1 (Homo sapiens, UniProt P36897)
T2 sequence (P36897 whole entry): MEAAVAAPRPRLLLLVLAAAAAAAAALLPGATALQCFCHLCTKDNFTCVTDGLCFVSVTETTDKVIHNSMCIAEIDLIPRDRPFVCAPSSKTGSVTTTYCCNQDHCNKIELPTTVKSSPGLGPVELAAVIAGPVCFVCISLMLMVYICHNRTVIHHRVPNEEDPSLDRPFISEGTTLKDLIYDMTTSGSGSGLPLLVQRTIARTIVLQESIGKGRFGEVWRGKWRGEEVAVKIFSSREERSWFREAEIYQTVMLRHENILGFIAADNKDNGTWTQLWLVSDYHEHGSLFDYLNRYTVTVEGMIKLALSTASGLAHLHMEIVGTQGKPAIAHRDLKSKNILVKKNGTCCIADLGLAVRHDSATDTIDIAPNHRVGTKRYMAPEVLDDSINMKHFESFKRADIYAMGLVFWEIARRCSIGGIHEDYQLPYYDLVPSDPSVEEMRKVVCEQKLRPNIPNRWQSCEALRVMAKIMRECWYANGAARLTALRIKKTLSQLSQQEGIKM

[3] = biological target: GTP-binding nuclear protein Ran (Homo sapiens, UniProt P62826)
[4] = biological target: T3, Phosphorylase b kinase gamma catalytic chain, liver/testis isoform (Homo sapiens, UniProt P15735)
T3 sequence (P15735 whole entry): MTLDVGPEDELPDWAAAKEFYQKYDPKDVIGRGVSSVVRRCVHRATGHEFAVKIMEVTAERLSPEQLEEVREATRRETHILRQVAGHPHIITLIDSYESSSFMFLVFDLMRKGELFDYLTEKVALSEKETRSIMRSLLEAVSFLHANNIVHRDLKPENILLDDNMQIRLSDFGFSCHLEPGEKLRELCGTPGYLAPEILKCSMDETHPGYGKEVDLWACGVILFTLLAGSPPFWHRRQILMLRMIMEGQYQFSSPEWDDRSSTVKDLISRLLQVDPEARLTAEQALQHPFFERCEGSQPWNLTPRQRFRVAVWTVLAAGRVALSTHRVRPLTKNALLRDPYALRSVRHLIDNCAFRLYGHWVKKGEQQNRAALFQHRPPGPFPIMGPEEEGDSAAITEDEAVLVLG

[5] = biological target: T4, Serine/threonine-protein kinase Nek2 (Homo sapiens, UniProt P51955)
T4 sequence (P51955 whole entry): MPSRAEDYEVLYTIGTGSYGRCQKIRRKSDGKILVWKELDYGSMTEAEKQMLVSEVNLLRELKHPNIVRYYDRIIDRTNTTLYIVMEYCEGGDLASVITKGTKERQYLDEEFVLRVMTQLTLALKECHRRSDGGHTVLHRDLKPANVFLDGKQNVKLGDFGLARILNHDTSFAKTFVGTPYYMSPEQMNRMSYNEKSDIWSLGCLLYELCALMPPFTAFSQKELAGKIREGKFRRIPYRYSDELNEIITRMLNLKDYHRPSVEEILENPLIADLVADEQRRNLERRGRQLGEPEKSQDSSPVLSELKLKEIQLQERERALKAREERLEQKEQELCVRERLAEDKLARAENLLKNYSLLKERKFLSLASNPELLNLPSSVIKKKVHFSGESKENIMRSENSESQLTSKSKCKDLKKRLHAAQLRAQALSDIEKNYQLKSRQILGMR

ADP/ATP translocase 2 = biological target: T5, ADP/ATP translocase 2 (Homo sapiens, UniProt P05141)
T5 sequence (P05141 whole entry): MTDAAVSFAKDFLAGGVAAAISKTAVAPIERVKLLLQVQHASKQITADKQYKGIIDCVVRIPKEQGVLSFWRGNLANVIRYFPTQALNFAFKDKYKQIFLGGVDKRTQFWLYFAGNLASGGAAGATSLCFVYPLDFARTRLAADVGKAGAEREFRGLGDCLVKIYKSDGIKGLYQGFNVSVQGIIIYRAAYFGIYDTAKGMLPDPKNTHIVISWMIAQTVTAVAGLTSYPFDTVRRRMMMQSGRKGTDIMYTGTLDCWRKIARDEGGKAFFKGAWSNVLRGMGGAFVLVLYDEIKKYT

[6] = biological target: Serine/threonine-protein kinase N1 (Homo sapiens, UniProt Q16512)
Chain of Serine/threonine-protein kinase N1 (Q16512 whole entry, the tested form may be a part): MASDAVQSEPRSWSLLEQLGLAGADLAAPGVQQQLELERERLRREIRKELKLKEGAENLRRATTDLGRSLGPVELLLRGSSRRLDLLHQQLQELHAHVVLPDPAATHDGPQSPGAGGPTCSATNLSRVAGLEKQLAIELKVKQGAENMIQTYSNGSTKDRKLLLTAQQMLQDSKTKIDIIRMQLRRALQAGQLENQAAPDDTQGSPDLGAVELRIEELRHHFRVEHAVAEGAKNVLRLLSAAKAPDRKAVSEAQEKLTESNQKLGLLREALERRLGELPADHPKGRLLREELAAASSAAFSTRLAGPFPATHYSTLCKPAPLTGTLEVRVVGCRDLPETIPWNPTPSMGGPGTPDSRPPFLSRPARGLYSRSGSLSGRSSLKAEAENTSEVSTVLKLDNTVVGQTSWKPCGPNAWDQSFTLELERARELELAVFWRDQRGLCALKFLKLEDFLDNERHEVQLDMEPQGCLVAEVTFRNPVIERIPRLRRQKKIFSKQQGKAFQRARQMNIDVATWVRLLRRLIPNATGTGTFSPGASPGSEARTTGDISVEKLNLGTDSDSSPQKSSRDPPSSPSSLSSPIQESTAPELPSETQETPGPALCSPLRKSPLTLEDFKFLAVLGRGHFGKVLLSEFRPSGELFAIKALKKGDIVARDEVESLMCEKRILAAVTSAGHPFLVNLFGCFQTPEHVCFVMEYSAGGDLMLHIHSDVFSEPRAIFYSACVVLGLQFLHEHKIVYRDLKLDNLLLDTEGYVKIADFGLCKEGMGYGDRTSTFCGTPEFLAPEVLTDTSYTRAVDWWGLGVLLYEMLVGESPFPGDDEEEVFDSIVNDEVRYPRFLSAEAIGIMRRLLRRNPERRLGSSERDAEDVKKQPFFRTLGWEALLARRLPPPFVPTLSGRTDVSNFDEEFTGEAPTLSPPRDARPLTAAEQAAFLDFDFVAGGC

[7] = biological target: PAS domain-containing serine/threonine-protein kinase (Homo sapiens, UniProt Q96RG2)
Chain of PAS domain-containing serine/threonine-protein kinase (Q96RG2 whole entry, the tested form may be a part): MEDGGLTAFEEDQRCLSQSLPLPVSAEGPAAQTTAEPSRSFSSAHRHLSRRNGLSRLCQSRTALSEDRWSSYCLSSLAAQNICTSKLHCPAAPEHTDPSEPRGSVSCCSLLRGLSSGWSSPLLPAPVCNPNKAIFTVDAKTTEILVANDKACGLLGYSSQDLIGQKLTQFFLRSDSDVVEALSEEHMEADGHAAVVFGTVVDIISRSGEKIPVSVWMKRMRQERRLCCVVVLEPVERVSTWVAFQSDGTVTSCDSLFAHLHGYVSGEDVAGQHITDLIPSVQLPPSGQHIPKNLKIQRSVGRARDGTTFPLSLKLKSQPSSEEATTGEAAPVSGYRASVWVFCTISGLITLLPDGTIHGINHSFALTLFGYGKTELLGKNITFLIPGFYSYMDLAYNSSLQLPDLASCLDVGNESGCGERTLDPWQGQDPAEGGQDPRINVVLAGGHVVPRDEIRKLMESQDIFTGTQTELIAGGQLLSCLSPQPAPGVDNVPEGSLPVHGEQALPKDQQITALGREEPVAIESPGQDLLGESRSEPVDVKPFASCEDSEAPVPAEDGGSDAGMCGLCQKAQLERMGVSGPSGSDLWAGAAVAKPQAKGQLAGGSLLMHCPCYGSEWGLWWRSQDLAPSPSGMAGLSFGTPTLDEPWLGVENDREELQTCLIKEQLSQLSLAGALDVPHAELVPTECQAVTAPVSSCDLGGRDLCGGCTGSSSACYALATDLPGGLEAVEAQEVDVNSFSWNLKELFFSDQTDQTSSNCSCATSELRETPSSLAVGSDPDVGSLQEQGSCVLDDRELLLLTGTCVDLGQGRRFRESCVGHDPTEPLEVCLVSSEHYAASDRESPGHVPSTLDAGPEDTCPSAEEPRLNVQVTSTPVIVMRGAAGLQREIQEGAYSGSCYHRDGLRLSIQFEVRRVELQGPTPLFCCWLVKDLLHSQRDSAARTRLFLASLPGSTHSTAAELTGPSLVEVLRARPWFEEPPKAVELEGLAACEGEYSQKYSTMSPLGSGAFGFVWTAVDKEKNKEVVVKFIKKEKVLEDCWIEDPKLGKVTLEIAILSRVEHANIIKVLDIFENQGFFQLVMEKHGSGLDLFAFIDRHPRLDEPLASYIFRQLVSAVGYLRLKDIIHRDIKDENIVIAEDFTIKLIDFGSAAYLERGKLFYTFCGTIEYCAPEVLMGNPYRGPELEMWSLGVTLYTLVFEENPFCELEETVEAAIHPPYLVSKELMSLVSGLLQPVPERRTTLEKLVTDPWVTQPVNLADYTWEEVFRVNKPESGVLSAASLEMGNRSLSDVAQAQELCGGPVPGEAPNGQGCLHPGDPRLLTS
Further: in the data inactive means no Kd found up to 30 µM.

Chain of Activated CDC42 kinase 1 (Q07912 whole entry): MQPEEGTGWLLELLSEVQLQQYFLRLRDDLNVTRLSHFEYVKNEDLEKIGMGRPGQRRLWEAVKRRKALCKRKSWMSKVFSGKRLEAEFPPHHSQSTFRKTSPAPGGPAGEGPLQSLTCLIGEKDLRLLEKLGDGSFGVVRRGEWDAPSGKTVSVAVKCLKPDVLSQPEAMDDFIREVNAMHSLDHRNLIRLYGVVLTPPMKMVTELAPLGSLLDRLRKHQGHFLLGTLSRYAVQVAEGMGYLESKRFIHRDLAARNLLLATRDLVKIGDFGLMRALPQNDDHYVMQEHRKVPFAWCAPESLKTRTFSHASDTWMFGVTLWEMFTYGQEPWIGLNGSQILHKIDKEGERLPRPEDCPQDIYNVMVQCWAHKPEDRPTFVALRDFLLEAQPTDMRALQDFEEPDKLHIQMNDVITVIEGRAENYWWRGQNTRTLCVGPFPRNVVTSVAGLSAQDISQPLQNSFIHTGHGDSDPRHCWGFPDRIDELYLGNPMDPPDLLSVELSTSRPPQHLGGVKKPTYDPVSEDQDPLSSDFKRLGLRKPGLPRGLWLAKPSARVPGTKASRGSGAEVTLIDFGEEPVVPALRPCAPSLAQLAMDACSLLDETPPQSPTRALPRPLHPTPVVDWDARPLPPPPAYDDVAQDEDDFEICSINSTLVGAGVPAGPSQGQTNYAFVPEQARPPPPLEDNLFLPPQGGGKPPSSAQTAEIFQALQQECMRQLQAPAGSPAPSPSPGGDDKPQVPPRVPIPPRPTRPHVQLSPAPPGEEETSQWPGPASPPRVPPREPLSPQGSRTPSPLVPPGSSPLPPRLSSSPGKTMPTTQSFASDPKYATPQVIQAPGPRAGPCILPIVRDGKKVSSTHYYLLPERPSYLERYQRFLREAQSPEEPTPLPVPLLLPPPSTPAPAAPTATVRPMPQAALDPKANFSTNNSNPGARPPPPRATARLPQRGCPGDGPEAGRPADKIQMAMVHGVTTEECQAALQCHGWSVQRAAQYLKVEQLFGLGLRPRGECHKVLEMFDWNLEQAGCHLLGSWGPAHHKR
Chain of Cyclin-dependent kinase 13 (Q14004 whole entry): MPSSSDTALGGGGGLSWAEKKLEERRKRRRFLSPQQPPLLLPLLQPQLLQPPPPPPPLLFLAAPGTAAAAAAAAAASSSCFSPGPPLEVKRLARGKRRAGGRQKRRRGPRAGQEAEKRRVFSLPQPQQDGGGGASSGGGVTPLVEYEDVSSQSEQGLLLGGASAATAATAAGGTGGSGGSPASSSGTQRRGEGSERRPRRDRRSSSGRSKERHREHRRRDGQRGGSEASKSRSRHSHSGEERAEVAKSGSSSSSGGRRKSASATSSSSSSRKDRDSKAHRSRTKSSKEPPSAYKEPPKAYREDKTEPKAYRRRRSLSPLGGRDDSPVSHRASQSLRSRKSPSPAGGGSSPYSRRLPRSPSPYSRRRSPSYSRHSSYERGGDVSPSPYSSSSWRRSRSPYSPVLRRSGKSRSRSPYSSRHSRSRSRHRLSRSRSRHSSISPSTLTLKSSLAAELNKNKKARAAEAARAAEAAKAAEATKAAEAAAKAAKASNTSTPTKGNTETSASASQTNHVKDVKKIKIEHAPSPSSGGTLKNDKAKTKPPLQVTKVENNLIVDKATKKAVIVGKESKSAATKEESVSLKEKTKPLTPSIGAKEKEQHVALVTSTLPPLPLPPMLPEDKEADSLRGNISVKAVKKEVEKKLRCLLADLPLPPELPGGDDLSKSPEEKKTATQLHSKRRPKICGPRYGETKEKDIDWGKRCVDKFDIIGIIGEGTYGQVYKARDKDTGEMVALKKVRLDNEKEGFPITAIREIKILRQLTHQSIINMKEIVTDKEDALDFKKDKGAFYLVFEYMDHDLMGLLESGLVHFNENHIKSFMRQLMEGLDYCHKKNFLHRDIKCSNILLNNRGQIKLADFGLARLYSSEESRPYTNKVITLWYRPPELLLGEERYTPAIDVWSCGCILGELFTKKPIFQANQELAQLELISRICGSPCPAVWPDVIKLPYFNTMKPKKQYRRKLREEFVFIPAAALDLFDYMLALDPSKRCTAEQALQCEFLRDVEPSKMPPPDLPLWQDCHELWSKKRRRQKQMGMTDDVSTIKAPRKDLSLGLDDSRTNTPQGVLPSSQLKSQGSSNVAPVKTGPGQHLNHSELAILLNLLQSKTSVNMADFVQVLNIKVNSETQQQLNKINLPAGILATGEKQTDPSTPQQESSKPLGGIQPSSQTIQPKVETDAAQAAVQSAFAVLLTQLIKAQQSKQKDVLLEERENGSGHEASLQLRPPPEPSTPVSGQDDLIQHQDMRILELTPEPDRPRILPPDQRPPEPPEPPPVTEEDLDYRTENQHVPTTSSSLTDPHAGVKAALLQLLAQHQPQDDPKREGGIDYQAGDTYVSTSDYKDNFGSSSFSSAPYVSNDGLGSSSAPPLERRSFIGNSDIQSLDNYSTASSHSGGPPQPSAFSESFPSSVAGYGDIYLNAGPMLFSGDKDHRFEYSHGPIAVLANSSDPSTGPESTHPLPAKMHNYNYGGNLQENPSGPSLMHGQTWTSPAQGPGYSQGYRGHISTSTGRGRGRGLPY

Row | SMILES | Kd (Activated CDC42 kinase 1) | Kd [1] | Kd (GTP-binding protein 4) | Kd [2] | Kd (Midasin) | Kd (TGF-beta receptor type-1) | Kd [3] | Kd [4] | Kd [5] | Kd (ADP/ATP translocase 2) | Kd [6] | Kd [7]
1 | O=C(Nc1nc2cccc(-c3ccc(CN4CCS(=O)(=O)CC4)cc3)n2n1)C1CC1 [FILGOTINIB] | > 30 µM (inactive) | > 30 µM (inactive) | > 30 µM (inactive) | > 30 µM (inactive) | > 30 µM (inactive) | > 30 µM (inactive) | > 30 µM (inactive) | > 30 µM (inactive) | > 30 µM (inactive) | > 30 µM (inactive) | > 30 µM (inactive) | –
2 | Cc1[nH]c(/C=C2\C(=O)Nc3ccccc32)c(C)c1CCC(=O)O [ORANTINIB] | – | > 30 µM (inactive) | > 30 µM (inactive) | > 30 µM (inactive) | > 30 µM (inactive) | > 30 µM (inactive) | > 30 µM (inactive) | – | – | > 30 µM (inactive) | > 30 µM (inactive) | > 30 µM (inactive)
3 | CNC(=O)c1ccccc1Sc1ccc2c(/C=C/c3ccccn3)n[nH]c2c1 [AXITINIB] | – | – | > 30 µM (inactive) | – | > 30 µM (inactive) | – | > 30 µM (inactive) | – | – | > 30 µM (inactive) | – | > 30 µM (inactive)
4 | C[C@@H](Oc1cc(-n2cnc3ccc(CN4CCN(C)CC4)cc32)sc1C(N)=O)c1ccccc1C(F)(F)F [GSK-461364] | – | – | > 30 µM (inactive) | – | > 30 µM (inactive) | – | > 30 µM (inactive) | – | – | > 30 µM (inactive) | – | > 30 µM (inactive)
5 | CNC(=O)c1cccc2cc(Oc3ccnc4cc(OCC5(N)CC5)c(OC)cc34)ccc12 [LUCITANIB] | > 30 µM (inactive) | > 30 µM (inactive) | > 30 µM (inactive) | 0.094 µM (active) | > 30 µM (inactive) | > 30 µM (inactive) | > 30 µM (inactive) | > 30 µM (inactive) | > 30 µM (inactive) | > 30 µM (inactive) | > 30 µM (inactive) | –
6 | O=C(NOCCO)c1cc(CN2OCCCC2=O)c(F)c(F)c1Nc1ccc(I)cc1F [RO-4987655] | – | – | > 30 µM (inactive) | – | > 30 µM (inactive) | – | > 30 µM (inactive) | – | – | > 30 µM (inactive) | – | > 30 µM (inactive)
7 | NC(=O)c1c(OCc2c(F)cc(Br)cc2F)nsc1NC(=O)NCCCCN1CCCC1 [OSI-632] | – | – | > 30 µM (inactive) | 0.669 µM (active) | > 30 µM (inactive) | 0.005 µM (active) | > 30 µM (inactive) | – | – | > 30 µM (inactive) | – | > 30 µM (inactive)
8 | CCn1c(C(=O)N(C2CC2)C2CC2)cc2c3c(ncn3C)c(Nc3cc(C)n(C)n3)nc21 [BMS-911543] | > 30 µM (inactive) | > 30 µM (inactive) | > 30 µM (inactive) | > 30 µM (inactive) | > 30 µM (inactive) | > 30 µM (inactive) | > 30 µM (inactive) | > 30 µM (inactive) | > 30 µM (inactive) | > 30 µM (inactive) | > 30 µM (inactive) | –
